Source: the Kinase Knowledgebase extract (Sharma et al. 2016)

What was measured:
EGFR (human) = EGFR (human) (UniProt P00533); settings: 3t3
EGFR = EGFR (UniProt P00533)
EGFR, sequence (P00533 whole entry, looked up): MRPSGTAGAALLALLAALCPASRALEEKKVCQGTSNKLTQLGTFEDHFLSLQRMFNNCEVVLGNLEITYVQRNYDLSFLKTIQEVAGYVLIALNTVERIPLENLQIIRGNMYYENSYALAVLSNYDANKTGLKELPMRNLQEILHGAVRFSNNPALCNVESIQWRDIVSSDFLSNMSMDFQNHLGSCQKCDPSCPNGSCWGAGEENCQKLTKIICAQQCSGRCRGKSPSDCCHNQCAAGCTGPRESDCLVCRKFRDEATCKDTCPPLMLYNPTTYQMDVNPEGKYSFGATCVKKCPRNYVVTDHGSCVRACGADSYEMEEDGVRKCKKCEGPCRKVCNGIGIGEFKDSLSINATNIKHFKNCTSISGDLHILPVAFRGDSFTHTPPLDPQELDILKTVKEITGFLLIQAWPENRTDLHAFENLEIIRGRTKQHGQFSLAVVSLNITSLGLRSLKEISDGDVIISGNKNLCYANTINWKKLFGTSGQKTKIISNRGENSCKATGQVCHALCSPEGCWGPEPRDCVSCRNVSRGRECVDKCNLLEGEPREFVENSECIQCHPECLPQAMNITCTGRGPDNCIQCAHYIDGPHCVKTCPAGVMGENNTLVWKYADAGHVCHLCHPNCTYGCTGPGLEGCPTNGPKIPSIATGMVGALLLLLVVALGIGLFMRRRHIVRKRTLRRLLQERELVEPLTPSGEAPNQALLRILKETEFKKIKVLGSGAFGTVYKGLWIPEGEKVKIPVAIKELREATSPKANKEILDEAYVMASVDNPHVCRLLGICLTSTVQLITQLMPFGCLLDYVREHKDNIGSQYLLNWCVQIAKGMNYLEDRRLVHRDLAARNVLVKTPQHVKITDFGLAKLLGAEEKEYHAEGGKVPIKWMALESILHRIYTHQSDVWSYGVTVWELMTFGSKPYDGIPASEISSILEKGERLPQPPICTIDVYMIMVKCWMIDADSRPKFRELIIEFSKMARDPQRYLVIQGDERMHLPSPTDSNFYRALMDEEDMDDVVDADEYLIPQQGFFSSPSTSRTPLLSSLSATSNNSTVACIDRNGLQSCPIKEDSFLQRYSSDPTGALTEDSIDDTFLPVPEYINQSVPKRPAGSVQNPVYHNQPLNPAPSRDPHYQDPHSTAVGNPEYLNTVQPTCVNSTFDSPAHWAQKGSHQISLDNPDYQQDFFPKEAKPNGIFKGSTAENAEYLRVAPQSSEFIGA

EGFR (human), sequence (P00533 whole entry, looked up): as above

| Structure (SMILES) | IC50 (EGFR (human)) | IC50 (EGFR) |
| --- | --- | --- |
| Cc1[nH]c(/C=C2/C(=O)Nc3ccc(Cl)cc32)c(C)c1CCCN(C)C | 7.49 µM | > 100 µM |
| Cc1ccc2c(c1)/C(=C\c1[nH]c(C)c(CCCN(C)C)c1C)C(=O)N2 | 25.4 µM |  |
| Cc1[nH]c(/C=C2/C(=O)Nc3ccccc32)c(C)c1CCCN1CCOCC1 | > 50 µM | > 100 µM |
| Cc1ccc2c(c1)/C(=C\c1[nH]c(C)c(CCC(=O)O)c1C)C(=O)N2 | > 50 µM |  |
| Cc1[nH]c(/C=C2/C(=O)Nc3ccc(Br)cc32)c(C)c1CCCN(C)C | 4.1 µM | > 100 µM |
| Cc1[nH]c(/C=C2\C(=O)Nc3ccc(S(=O)(=O)NC(C)C)cc32)c(C)c1CCCN(C)C | 8.38 µM |  |
| Cc1[nH]c(/C=C2/C(=O)Nc3ccc(S(=O)(=O)N(C)C)cc32)c(C)c1CCCN(C)C | 11.2 µM |  |
| COc1ccccc1-c1ccc2c(c1)NC(=O)/C2=C\c1[nH]c(C)c(CCCN2CCOCC2)c1C | 3.9 µM | > 100 µM |
| Cc1[nH]c(/C=C2/C(=O)Nc3cccc(CCO)c32)c(C)c1CCCN(C)C | 25.3 µM |  |
| Cc1[nH]c(/C=C2/C(=O)Nc3ccc(Br)cc32)c(C)c1CCC(=O)O | > 50 µM |  |
| COc1ccc2c(c1)NC(=O)/C2=C\c1[nH]c(C)c(CCCN(C)C)c1C | 27.5 µM | > 100 µM |
| COc1ccc(-c2ccc3c(c2)NC(=O)/C3=C\c2[nH]c(C)c(CCCN3CCOCC3)c2C)cc1 | > 50 µM | > 100 µM |
| Cc1[nH]c(/C=C2/C(=O)Nc3cc(-c4ccccc4)ccc32)c(C)c1CCCN(C)C | 4 µM | > 100 µM |
| COc1cccc(-c2ccc3c(c2)NC(=O)/C3=C\c2[nH]c(C)c(CCCN3CCOCC3)c2C)c1 | 41.9 µM | > 100 µM |
| COc1ccc2c(c1)/C(=C/c1[nH]c(C)c(CCCN(C)C)c1C)C(=O)N2 | 11 µM | > 100 µM |
| Cc1[nH]c(/C=C2/C(=O)Nc3ccc(S(=O)(=O)N4CCOCC4)cc32)c(C)c1CCCN(C)C | 29.8 µM |  |
| COc1cccc(-c2ccc3c(c2)NC(=O)/C3=C\c2[nH]c(C)c(CCCN(C)C)c2C)c1 | 9.57 µM | 28.1 µM |
| Cc1[nH]c(/C=C2/C(=O)Nc3ccc(I)cc32)c(C)c1CCC(=O)O | > 50 µM |  |
| Cc1[nH]c(/C=C2/C(=O)Nc3ccc(Cl)cc32)c(C)c1CCC(=O)O | > 50 µM |  |
| Cc1[nH]c(/C=C2/C(=O)Nc3cc(Cl)ccc32)c(C)c1CCCN(C)C | 25.4 µM | 86.6 µM |
| COc1ccccc1-c1ccc2c(c1)NC(=O)/C2=C\c1[nH]c(C)c(CCCN(C)C)c1C | 9.56 µM | 22.8 µM |
| Cc1[nH]c(/C=C2/C(=O)Nc3ccccc32)c(C)c1CCCN(C)C | 12.6 µM | > 100 µM |
| Cc1cccc2c1/C(=C\c1[nH]c(C)c(CCC(=O)O)c1C)C(=O)N2 | > 50 µM |  |
| COc1ccc(-c2ccc3c(c2)NC(=O)/C3=C\c2[nH]c(C)c(CCCN(C)C)c2C)cc1 | 3.86 µM | > 100 µM |
| Cc1[nH]c(/C=C2/C(=O)Nc3ccc(S(N)(=O)=O)cc32)c(C)c1CCCN(C)C | 6.59 µM |  |
| Cc1[nH]c(/C=C2/C(=O)Nc3cc(-c4ccccc4)ccc32)c(C)c1CCC(=O)O | 32.7 µM |  |
| Cc1[nH]c(/C=C2/C(=O)Nc3cc(-c4ccccc4)ccc32)c(C)c1CCCN1CCOCC1 | > 50 µM | > 100 µM |
| Cc1cccc2c1/C(=C\c1[nH]c(C)c(CCCN(C)C)c1C)C(=O)N2 | 20.2 µM |  |
| Cc1[nH]c(/C=C2/C(=O)Nc3ccc(Br)cc32)c(C)c1CCCN1CCOCC1 | 44.6 µM | > 100 µM |
| CCOc1cccc(-c2ccc3c(c2)NC(=O)/C3=C\c2[nH]c(C)c(CCC(=O)O)c2C)c1 | 24.7 µM |  |

Second part, the molecule after the results:

| IC50 (EGFR (human)) | IC50 (EGFR) | Structure (SMILES) |
| --- | --- | --- |
| 36.8 µM |  | COc1ccc(-c2ccc3c(c2)NC(=O)/C3=C\c2[nH]cc(CCC(=O)O)c2C)cc1 |
| 37.2 µM |  | CCOc1cccc(-c2ccc3c(c2)NC(=O)/C3=C\c2[nH]cc(CCC(=O)O)c2C)c1 |
| > 50 µM |  | COc1ccc2c(c1)/C(=C/c1[nH]cc(CCC(=O)O)c1C)C(=O)N2 |
| > 50 µM |  | Cc1c(CCC(=O)O)c[nH]c1/C=C1/C(=O)Nc2cc(Br)ccc21 |
| > 50 µM |  | COc1ccc2c(c1)NC(=O)/C2=C\c1[nH]cc(CCC(=O)O)c1C |
| > 50 µM |  | COc1ccc2c(c1)NC(=O)/C2=C\c1[nH]c(C)c(CCC(=O)O)c1C |
| > 50 µM |  | Cc1c(CCC(=O)O)c[nH]c1/C=C1/C(=O)Nc2ccc(I)cc21 |
| > 50 µM |  | Cc1ccc2c(c1)/C(=C\c1[nH]cc(CCC(=O)O)c1C)C(=O)N2 |
| 30.6 µM |  | COc1cccc(-c2ccc3c(c2)NC(=O)/C3=C\c2[nH]cc(CCC(=O)O)c2C)c1 |
| > 50 µM |  | COc1cc2c(cc1OC)/C(=C/c1[nH]cc(CCC(=O)O)c1C)C(=O)N2 |
| > 50 µM |  | Cc1c(CCC(=O)O)c[nH]c1/C=C1/C(=O)Nc2ccccc21 |
| > 50 µM |  | Cc1c(CCC(=O)O)c[nH]c1/C=C1/C(=O)Nc2cc(Cl)ccc21 |
| > 50 µM |  | Cc1[nH]c(/C=C2/C(=O)Nc3cc(O)ccc32)c(C)c1CCC(=O)O |
| > 50 µM |  | COc1ccc(-c2ccc3c(c2)NC(=O)/C3=C\c2[nH]c(C)c(CCC(=O)O)c2C)cc1 |
| > 50 µM |  | CCc1ccc2c(c1)/C(=C/c1[nH]cc(CCC(=O)O)c1C)C(=O)N2 |
| > 50 µM |  | Cc1c(CCC(=O)O)c[nH]c1/C=C1/C(=O)Nc2ccc(Br)cc21 |
| > 50 µM |  | Cc1cccc2c1/C(=C\c1[nH]cc(CCC(=O)O)c1C)C(=O)N2 |
| > 50 µM |  | COC(=O)c1ccc2c(c1)/C(=C/c1[nH]cc(CCC(=O)O)c1C)C(=O)N2 |
| 30.5 µM |  | Cc1c(CCC(=O)O)c[nH]c1/C=C1/C(=O)Nc2cc(-c3ccccc3)ccc21 |
| 12 µM |  | Cc1c(CCC(=O)O)c[nH]c1/C=C1/C(=O)Nc2ccc(Cl)cc21 |
